In ChEMBL document CHEMBL1156944, “Efficient microwave-assisted prenylation of pinostrobin and biological evaluation of its derivatives as antitumor agents” (Bioorg Med Chem Lett, 2010) one finds IC50 data, which are given here for 3 compounds.

Tested on in the first assay: not listed separately
Nature of the assay: Cytotoxicity against human COLO320DM cells after 72 hrs by WST-8 assay. The assay is classed as functional, cell-based. To be noted: COLO 320DM. A general note: Tetrazolium assays rely on reduction of a dye to a coloured formazan, in cell work by metabolically active cells.
As to `COc1cc(O)c2c(c1CC=C(C)C)OC(c1ccccc1)CC2=O` (configuration not stated), 24.2 µM corresponded to half-maximal inhibition (IC50).

Consider `COc1cc2c(c3c1C(C)(C)C(C)O3)C(=O)CC(c1ccccc1)O2` (configuration not stated), for which half-maximal inhibition (IC50) was put at 18.6 µM. The IC50 values of the last two compounds are within 1.5-fold of each other.

Consider `COc1cc(O)c2c(c1)O[C@H](c1ccccc1)CC2=O` [PINOSTROBIN], for which the IC50 – broadly, the concentration that gives 50% inhibition – is over 100 µM.

Another assay relates to SK-BR-3. Nature of the assay: Cytotoxicity against human SK-BR-3 cells after 72 hrs by WST-8 assay. The assay is classed as functional, cell-based. To be noted: SK-BR-3, 72 h.
`COc1cc(O)c2c(c1CC=C(C)C)OC(c1ccccc1)CC2=O` (configuration not stated) had an IC50 of 34.4 µM.

For `COc1cc2c(c3c1C(C)(C)C(C)O3)C(=O)CC(c1ccccc1)O2` (configuration not stated), the IC50 stood at 14 µM.

As to `COc1cc(O)c2c(c1)O[C@H](c1ccccc1)CC2=O` [PINOSTROBIN], the midpoint of inhibition, the IC50, lay at 94.3 µM.

The next assay has as its system PC-3. As to the kind of experiment: Cytotoxicity against human PC3 cells after 72 hrs by WST-8 assay. The assay is classed as functional, cell-based. Conditions: PC-3, 72 h.
With `COc1cc(O)c2c(c1CC=C(C)C)OC(c1ccccc1)CC2=O` (configuration not stated), inhibition was half-maximal at 35.3 µM (IC50). This lies in the double-digit micromolar range.

In turn, `COc1cc2c(c3c1C(C)(C)C(C)O3)C(=O)CC(c1ccccc1)O2` (configuration not stated) had an IC50 of 10.4 µM.

On to `COc1cc(O)c2c(c1)O[C@H](c1ccccc1)CC2=O` [PINOSTROBIN], for which inhibition was half-maximal at 86.7 µM (IC50).

In another assay the test system is MCF7. As to the kind of experiment: Cytotoxicity against human MCF7 cells after 72 hrs by WST-8 assay. Format: functional, cell-based. Conditions: MCF7, 72 h.
As to `COc1cc(O)c2c(c1CC=C(C)C)OC(c1ccccc1)CC2=O` (configuration not stated), the IC50 was determined as 30.3 µM.

For `COc1cc2c(c3c1C(C)(C)C(C)O3)C(=O)CC(c1ccccc1)O2` (configuration not stated), the 50% inhibitory concentration (IC50) amounted to 29.5 µM.

Consider `COc1cc(O)c2c(c1)O[C@H](c1ccccc1)CC2=O` [PINOSTROBIN], for which the IC50 amounted to 84.9 µM.
